Laboratory results as given in the supplement of paper PMC10307832.

Tests used:
Assay in all cases: relative viability (nuclei count vs DMSO), 5 days (fraction); higher = more cells survive
LK-2 = system: LK-2
Procedure, shortened: (§1)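 Lung cancer cell lines were pin-tool dosed in 1536-well plates on the day after seeding, with either a lone drug or a fixed anchor-drug dose plus five library-drug doses (not always all listed) in √10 steps. Nuclei were counted on 4× images after 5 days. Relative viability is the ratio of treated-well to vehicle-well nuclei counts, with each value a median of duplicate plates.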

PC-14 = system: PC-14
Procedure, shortened: as §1

201T = system: 201T
Procedure, shortened: as §1

PC-3 [JPC-3] = system: PC-3 [JPC-3]
Procedure, shortened: as §1

NCI-H460 = system: NCI-H460
Procedure, shortened: as §1

NCI-H1650 = system: NCI-H1650
Procedure, shortened: as §1

SW 900 = system: SW 900
Procedure, shortened: as §1

LC-2-ad = system: LC-2-ad
Procedure, shortened: as §1

LCLC-97TM1 = system: LCLC-97TM1
Procedure, shortened: as §1

NCI-H596 = system: NCI-H596
Procedure, shortened: as §1

NCI-H2347 = system: NCI-H2347
Procedure, shortened: as §1

NCI-H1563 = system: NCI-H1563
Procedure, shortened: as §1

COR-L23 = system: COR-L23
Procedure, shortened: as §1

LCLC-103H = system: LCLC-103H
Procedure, shortened: as §1

HCC-44 = system: HCC-44
Procedure, shortened: as §1

LU99A = system: LU99A
Procedure, shortened: as §1

SW 1573 = system: SW 1573
Procedure, shortened: as §1

NCI-H23 = system: NCI-H23
Procedure, shortened: as §1

NCI-H1793 = system: NCI-H1793
Procedure, shortened: as §1

A-427 = system: A-427
Procedure, shortened: as §1

NCI-H727 = system: NCI-H727
Procedure, shortened: as §1

H3255 = system: H3255
Procedure, shortened: as §1

NCI-H2228 = system: NCI-H2228
Procedure, shortened: as §1

Compound: COc1nc(C)cnc1NS(=O)(=O)c1cccnc1-c1ccc(-c2nnco2)cc1 [Zibotentan] + N=C(N)NC(=N)NCCc1ccccc1 [Phenformin] (partner 250 µM)
- relative viability (LK-2; first compound 0.08 µM): 0.354
- relative viability (LK-2; first compound 0.253 µM): 0.403
- relative viability (LK-2; first compound 0.8 µM): 0.467
- relative viability (LK-2; first compound 2.53 µM): 0.59
- relative viability (PC-14; first compound 0.08 µM): 0.692
- relative viability (PC-14; first compound 0.253 µM): 0.377
- relative viability (PC-14; first compound 0.8 µM): 0.66
- relative viability (PC-14; first compound 2.53 µM): 0.601
- relative viability (201T; first compound 0.08 µM): 0.477
- relative viability (201T; first compound 0.253 µM): 0.451
- relative viability (201T; first compound 0.8 µM): 0.441
- relative viability (201T; first compound 2.53 µM): 0.442
- relative viability (PC-3 [JPC-3]; first compound 0.08 µM): 0.459
- relative viability (PC-3 [JPC-3]; first compound 0.253 µM): 0.466
- relative viability (PC-3 [JPC-3]; first compound 0.8 µM): 0.474
- relative viability (PC-3 [JPC-3]; first compound 2.53 µM): 0.499
- relative viability (NCI-H460; first compound 0.08 µM): 0.56
- relative viability (NCI-H460; first compound 0.253 µM): 0.147
- relative viability (NCI-H460; first compound 0.8 µM): 0.496
- relative viability (NCI-H460; first compound 2.53 µM): 0.532
- relative viability (NCI-H1650; first compound 0.08 µM): 0.454
- relative viability (NCI-H1650; first compound 0.8 µM): 0.516
- relative viability (NCI-H1650; first compound 2.53 µM): 0.428
- relative viability (SW 900; first compound 0.08 µM): 0.557
- relative viability (SW 900; first compound 0.253 µM): 0.502
- relative viability (SW 900; first compound 0.8 µM): 0.669
- relative viability (SW 900; first compound 2.53 µM): 0.801
- relative viability (LC-2-ad; first compound 0.08 µM): 0.564
- relative viability (LC-2-ad; first compound 0.8 µM): 0.689
- relative viability (LC-2-ad; first compound 2.53 µM): 0.619
- relative viability (LCLC-97TM1; first compound 0.08 µM): 0.457
- relative viability (LCLC-97TM1; first compound 0.253 µM): 0.449
- relative viability (LCLC-97TM1; first compound 0.8 µM): 0.464
- relative viability (LCLC-97TM1; first compound 2.53 µM): 0.465
- relative viability (NCI-H596; first compound 0.08 µM): 0.842
- relative viability (NCI-H596; first compound 0.253 µM): 0.786
- relative viability (NCI-H596; first compound 0.8 µM): 0.794
- relative viability (NCI-H596; first compound 2.53 µM): 0.805
- relative viability (NCI-H2347; first compound 0.253 µM): 0.434
- relative viability (NCI-H2347; first compound 0.8 µM): 0.375
- relative viability (NCI-H2347; first compound 2.53 µM): 0.444
- relative viability (NCI-H1563; first compound 0.08 µM): 0.67
- relative viability (NCI-H1563; first compound 0.8 µM): 0.66
- relative viability (NCI-H1563; first compound 2.53 µM): 0.643
- relative viability (COR-L23; first compound 0.08 µM): 0.445
- relative viability (COR-L23; first compound 0.253 µM): 0.376
- relative viability (COR-L23; first compound 0.8 µM): 0.506
- relative viability (COR-L23; first compound 2.53 µM): 0.416
- relative viability (LCLC-103H; first compound 0.08 µM): 0.357
- relative viability (LCLC-103H; first compound 0.253 µM): 0.314
- relative viability (LCLC-103H; first compound 0.8 µM): 0.315
- relative viability (LCLC-103H; first compound 2.53 µM): 0.333
- relative viability (HCC-44; first compound 0.08 µM): 0.167
- relative viability (HCC-44; first compound 0.253 µM): 0.201
- relative viability (HCC-44; first compound 0.8 µM): 0.273
- relative viability (HCC-44; first compound 2.53 µM): 0.158
- relative viability (LU99A; first compound 0.08 µM): 0.922
- relative viability (LU99A; first compound 0.253 µM): 0.853
- relative viability (LU99A; first compound 0.8 µM): 0.795
- relative viability (LU99A; first compound 2.53 µM): 0.897
- relative viability (SW 1573; first compound 0.08 µM): 0.397
- relative viability (SW 1573; first compound 0.8 µM): 0.359
- relative viability (SW 1573; first compound 2.53 µM): 0.334
- relative viability (NCI-H23; first compound 0.08 µM): 0.85
- relative viability (NCI-H23; first compound 0.253 µM): 0.762
- relative viability (NCI-H23; first compound 0.8 µM): 0.761
- relative viability (NCI-H23; first compound 2.53 µM): 0.86
- relative viability (NCI-H1793; first compound 0.08 µM): 0.404
- relative viability (NCI-H1793; first compound 0.253 µM): 0.431
- relative viability (NCI-H1793; first compound 0.8 µM): 0.31
- relative viability (NCI-H1793; first compound 2.53 µM): 0.406
- relative viability (A-427; first compound 0.08 µM): 0.38
- relative viability (A-427; first compound 0.253 µM): 0.39
- relative viability (A-427; first compound 0.8 µM): 0.397
- relative viability (A-427; first compound 2.53 µM): 0.348
- relative viability (NCI-H727; first compound 0.08 µM): 0.41
- relative viability (NCI-H727; first compound 0.253 µM): 0.519
- relative viability (NCI-H727; first compound 0.8 µM): 0.553
- relative viability (NCI-H727; first compound 2.53 µM): 0.627
- relative viability (H3255; first compound 0.08 µM): 0.386
- relative viability (H3255; first compound 0.253 µM): 0.326
- relative viability (H3255; first compound 0.8 µM): 0.307
- relative viability (H3255; first compound 2.53 µM): 0.354
- relative viability (NCI-H2228; first compound 0.08 µM): 0.324
- relative viability (NCI-H2228; first compound 0.253 µM): 0.314
- relative viability (NCI-H2228; first compound 0.8 µM): 0.444
- relative viability (NCI-H2228; first compound 2.53 µM): 0.415
